# Biological target: T1, NO synthase (Rattus norvegicus, UniProt P29476)
# T1 construct: the supernatant was then removed by decantation and frozen in portions at −80° C; from tissue; host or cells: rat cerebellum, 20,000 g supernatant of homogenate
# Experiment: HTS-NOS assay (NOS assay): conversion of radioactive arginine, cation-exchanger filter plate
# Type: biochemical
# Details: 10 μM
# Method: This assay enables the percentage inhibition of NO synthase by an active ingredient to be determined by measuring the NOS activity under the action of the active ingredient. NO synthase is mixed together with radioactively labelled arginine and the active ingredient under suitable conditions. After terminating the NO-forming reaction at a given time, the amount of unconverted arginine is determined directly or indirectly. A comparison of that amount with the amount of arginine that remains in a mixture of NOS and arginine without the addition of active ingredient and under otherwise identical conditions gives the % inhibition of NO synthase by the tested active ingredient. This assay can be carried out as follows:
# (a) incubation of NO synthase with labelled arginine as substrate in a reaction vessel,
# (b) separation of the labelled arginine from the labelled citrulline optionally formed as a product of the enzymatic reaction, at a time at which the citrulline concentration is increasing,
# (c) measurement of the amount of arginine remaining in each case.
# Separation is carried out over a filter plate membrane.
# This NOS assay is suitable especially for “high throughput screening” (HTS) on microtitre plates (MTP).
# In this HTS-NOS assay, radioactive arginine is used as substrate. The assay volume can be chosen in the range from 25 μl to 250 μl, according to the type of microtitre plate (MTP). Depending on the source of the enzyme used, co-factors and co-enzymes are added. Incubation of the batches on this microtitre plate (assay MTP) according to step (a) is carried out at room temperature and is for 5 to 60 minutes according to the enzyme activity used (units). At the end of the incubation (step (a)), the plate is placed into a cell harvester which is equipped with a MTP having a cation-exchanger membrane as the filter base (filter MTP). All batches of the assay MTP are transferred to the filter MTP and filtered off with suction over a cation-exchanger filter plate, a paper filter charged with phosphate groups. The filter MTP is then washed with buffer or water. By means of this procedure, the arginine substrate that remains is bound to the cation exchanger, while the enzymatically formed radioactive citrulline is washed out quantitatively. After drying the filter MTP and adding scintillation liquid, the bound arginine can be counted using a scintillation counter. An uninhibited NOS reaction is reflected in low radioactivity. An inhibited enzyme reaction means that the radioactive arginine has not been converted. This means that a high level of radioactivity is found on the filter.
# Rat cerebella were used as the starting tissue. The animals were anaesthetized and sacrificed, the brain tissue, the cerebellum, was removed by dissection, 1 ml of enzyme preparation buffer was added per rat cerebellum (4° C.), and disintegration was carried out using a Polytron homogeniser for 1 minute at 6000 rpm, followed by centrifugation for 15 minutes at 4° C. and 20,000 g; the supernatant was then removed by decantation and frozen in portions at −80° C. (the precipitate was discarded).
# 96-well MTP having a well capacity of <250 μl were used.
# Pipetting sequence: see Table 1.
# When the pipetting operation was complete, a cover was placed on the MTP (assay MTP), and incubation was at 25° C. (room temperature (RT)) for from 5 to 60 minutes, according to the amount and activity of the enzyme used.
# The contents of the assay MTP were then transferred with the aid of a 96-well cell harvester to a 96-well cation exchanger MTP (filter MTP) and filtered off with suction. This was followed by washing once with […] of H2O (from a bath).
# The plate was then dried for 1 hour at 60° C. in a drying cabinet. The underside of the filter MTP was then accurately sealed from beneath with a “back seal”. 35 μl of scintillation fluid per well were then added by means of a pipette. The upper side of the plate was also sealed with a “top seal”. […]
row,SMILES,HTS-NOS assay: % inhibition (10 μM)
1,"C#[N+]CCCCCCNc1c(-c2ccccc2C(F)(F)F)nc2cc(C)cc(C)n12 [Example 75, {6-[5,7-Dimethyl-2-(2-trifluorO-methyl-phenyl)-imidazo[1,2-a]pyridin-3-ylamino]-hexyl}-methylidyne-ammonium]",56%
2,"C#[N+]CCCCCCNc1c(C2CCCCC2)nc2cc(C)cc(C)n12 [Example 88, [6-(2-Cyclohexyl-5,7-dimethyl-imidazo[1,2-a]pyridin-3-ylamino)-hexyl]-methylidyne-ammonium]",57%
3,"[C-]#[N+]CCCCCCNc1c(-c2ccccc2Br)nc2cc(C)cc(C)n12 [Example 92, {6-[2-(2-Bromophenyl)-5,7-dimethyl-imidazo[1,2-a]pyridin-3-ylamino]-hexyl}-methylidyne-ammonium]",60%

# Same assay, conditions: read-out: HTS-NOS assay: % inhibition (10 μM)
row,SMILES,inhibition at 10 µM
1,"Cc1ccn2c(NC(C)(C)C)c(-c3ccc(C4OCCO4)o3)nc2c1 [Example 65, Tert-butyl-[2-(5-[1,3]dioxolan-2-yl-furan-2-yl)-7-methyl-imidazo[1,2-a]pyridin-3-yl]-amine]",62%
2,"Cc1cc(C)n2c(NC(C)(C)CC(C)(C)C)c(-c3cc4ccccc4o3)nc2c1 [Example 66, (2-Benzofuran-2-yl-5,7-dimethyl-imidazo[1,2-a]pyridin-3-yl)-(1,1,3,3-tetramethyl-butyl)-amine]",53%
3,"Cc1cc(C)n2c(NC(C)(C)C)c(-c3ccc(C(=O)O)o3)nc2c1 [Example 67, 5-(3-Tert-butylamino-5,7-dimethyl-imidazo[1,2-a]pyridin-2-yl)-furan-2-carboxylic acid]",56%
4,"Cc1ccn2c(NC(C)(C)C)c(-c3ccco3)nc2c1 [Example 68, Tert-butyl-(2-furan-2-yl-7-methyl-imidazo[1,2-a]pyridin-3-yl)-amine]",57%
5,"Cc1ccn2c(NC3CCCCC3)c(C)nc2c1 [Example 69, Cyclohexyl-(2,7-dimethyl-imidazo[1,2-a]-pyridin-3-yl)-amine]",55%
6,"Cc1cccn2c(NC(C)(C)CC(C)(C)C)c(-c3cccc(Cl)c3Cl)nc12 [Example 70, [2-(2,3-Dichlorophenyl)-8-methyl-imidazo[1,2-a]pyridin-3-yl]-(1,1,3,3-tetramethyl-butyl)-amine]",52%
7,"Cc1ccc(-c2nc3cc(C)ccn3c2NC(C)(C)CC(C)(C)C)cc1 [Example 71, (7-Methyl-2-p-tolyl-imidazo[1,2-a]pyridin-3-yl)-(1,1,3,3-tetramethyl-butyl)-amine]",58%
8,"COc1ccccc1-c1nc2cc(C)ccn2c1Nc1c(C)cccc1C [Example 72, (2,6-Dimethyl-phenyl)-[2-(2-methoxy-phenyl)-7-methyl-imidazo[1,2-a]pyridin-3-yl]-amine]",53%
9,"CCCCNc1c(-c2cccc(O)c2)nc2cc(C)cc(C)n12 [Example 73, 3-(3-Butylamino-5,7-dimethyl-imidazo[1,2-a]pyridin-2-yl)-phenol]",61%
10,"CCCCNc1c(-c2cccc(OC)c2OC)nc2cc(C)ccn12 [Example 74, Butyl-[2-(2,3-dimethoxy-phenyl)-7-methyl-imidazo[1,2-a]pyridin-3-yl]-amine]",62%
11,"Cc1ccn2c(NC(C)(C)C)c(-c3ccccn3)nc2c1 [Example 76, Tert-butyl-(7-methyl-2-pyridin-2-yl-imidazo[1,2-a]pyridin-3-yl)-amine]",67%
12,"Cc1cc(C)n2c(NC3CCCCC3)c(C3CCCCC3)nc2c1 [Example 77, Cyclohexyl-(2-cyclohexyl-5,7-dimethyl-imidazo[1,2-a]pyridin-3-yl)-amine]",63%
13,"Cc1cc(C)n2c(Nc3c(C)cccc3C)c(-c3cccc(Cl)c3Cl)nc2c1 [Example 78, [2-(2,3-Dichlorophenyl)-5,7-dimethyl-imidazo[1,2-a]pyridin-3-yl]-(2,6-dimethyl-phenyl)-amine]",61%
14,"COc1ccccc1-c1nc2cc(C)cc(C)n2c1Nc1c(C)cccc1C [Example 79, (2,6-Dimethyl-phenyl)-[2-(2-methoxy-phenyl)-5,7-dimethyl-imidazo[1,2-a]pyridin-3-yl]-amine]",66%
15,"Cc1ccn2c(NC(C)(C)CC(C)(C)C)c(-c3ccc(-c4ccccc4Cl)o3)nc2c1 [Example 80, {2-[5-(2-Chlorophenyl)-furan-2-yl]-7-methyl-imidazo[1,2-a]pyridin-3-yl}-(1,1,3,3-tetramethyl-butyl)-amine]",52%
16,"Cc1ccn2c(NC(C)(C)CC(C)(C)C)c(-c3ccc(C(=O)O)o3)nc2c1 [Example 81, 5-[7-Methyl-3-(1,1,3,3-tetramethyl-butylamino)-imidazo[1,2-a]pyridin-2-yl]-furan-2-carboxylic acid]",60%
17,"COc1ccccc1-c1nc2c(C)cccn2c1NC1CCCCC1 [Example 82, Cyclohexyl-[2-(2-methoxy-phenyl)-8-methyl-imidazo[1,2-a]pyridin-3-yl]-amine]",62%
18,"Cc1ccn2c(NC(C)(C)CC(C)(C)C)c(-c3cccc(O)c3)nc2c1 [Example 83, 3-[7-Methyl-3-(1,1,3,3-tetramethyl-butylamino)-imidazo[1,2-a]pyridin-2-yl]-phenol]",60%

# Continued, values first:
row,inhibition at 10 µM,SMILES
1,54%,"Cc1cc(C)n2c(NC(C)(C)CC(C)(C)C)c(-c3cccc(Cl)c3Cl)nc2c1 [Example 84, [2-(2,3-Dichlorophenyl)-5,7-dimethyl-imidazo[1,2-a]pyridin-3-yl]-(1,1,3,3-tetramethyl-butyl)-amine]"
2,61%,"Cc1ccn2c(NC(C)(C)CC(C)(C)C)c(-c3ccc(Cl)cc3Cl)nc2c1 [Example 85, [2-(2,4-Dichlorophenyl)-7-methyl-imidazo[1,2-a]pyridin-3-yl]-(1,1,3,3-tetramethyl-butyl)-amine]"
3,54%,"Cc1ccn2c(NC(C)(C)CC(C)(C)C)c(-c3ccc(Br)o3)nc2c1 [Example 86, [2-(5-Bromofuran-2-yl)-7-methyl-imidazo[1,2-a]pyridin-3-yl]-(1,1,3,3-tetramethyl-butyl)-amine]"
4,54%,"Cc1cc(C)n2c(NC3CCCCC3)c(-c3ccc(C(=O)O)o3)nc2c1 [Example 87, 5-(3-Cyclohexylamino-5,7-dimethyl-imidazo[1,2-a]pyridin-2-yl)-furan-2-carboxylic acid]"
5,68%,"Cc1cc(C)n2c(NC(C)(C)CC(C)(C)C)c(-c3ccc(Cl)cc3Cl)nc2c1 [Example 89, [2-(2,4-Dichlorophenyl)-5,7-dimethyl-imidazo[1,2-a]pyridin-3-yl]-(1,1,3,3-tetramethyl-butyl)-amine]"
6,53%,"Cc1ccn2c(Nc3c(C)cccc3C)c(-c3cc4ccccc4o3)nc2c1 [Example 90, (2-benzofuran-2-yl-7-methyl-imidazo[1,2-a]-pyridin-3-yl)-(2,6-dimethyl-phenyl)-amine]"
7,64%,"Cc1ccn2c(NC3CCCCC3)c(-c3ccc(C(=O)O)o3)nc2c1 [Example 91, 5-(3-Cyclohexylamino-7-methyl-imidazo[1,2-a]pyridin-2-yl)-furan-2-carboxylic acid]"
8,52%,"Cc1ccn2c(NC(C)(C)C)c(C3CCCCC3)nc2c1 [Example 93, Tert-butyl-(2-cyclohexyl-7-methyl-imidazo[1,2-a]pyridin-3-yl)-amine]"
9,65%,"Cc1ccn2c(NC(C)(C)C)c(C)nc2c1 [Example 94, Tert-butyl-(2,7-dimethyl-imidazo[1,2-a]-pyridin-3-yl)-amine]"
10,70%,"Cc1ccc(-c2nc3cc(C)cc(C)n3c2NC(C)(C)CC(C)(C)C)cc1 [Example 95, (5,7-Dimethyl-2-p-tolyl-imidazo[1,2-a]-pyridin-3-yl)-(1,1,3,3-tetramethyl-butyl)-amine]"

# — patent US20040023972A1, “Use of substituted imidazo[1,2-a]-pyridin-, -pyrimidin-and-pyrazin-3-yl-amine derivatives in the preparation of medicaments for inhibiting NOS” (Gruenenthal GmbH, priority 2000, published 2004)
